# Reference: ChEMBL document CHEMBL4428137, “Development of a Potent and Selective HDAC8 Inhibitor” (ACS Med Chem Lett, 2016)
# The source made the active and inactive calls. The calls are words filed in the database; no cut-off is given here.
# How the values were obtained:
# Histone deacetylase 8 = target: T1, Histone deacetylase 8 (Homo sapiens, UniProt Q9BY41); test: (§1) Inhibition of HDAC8 (unknown origin) using fluorophore-conjugated substrate by fluorescence assay
# T1 sequence (Q9BY41 whole entry): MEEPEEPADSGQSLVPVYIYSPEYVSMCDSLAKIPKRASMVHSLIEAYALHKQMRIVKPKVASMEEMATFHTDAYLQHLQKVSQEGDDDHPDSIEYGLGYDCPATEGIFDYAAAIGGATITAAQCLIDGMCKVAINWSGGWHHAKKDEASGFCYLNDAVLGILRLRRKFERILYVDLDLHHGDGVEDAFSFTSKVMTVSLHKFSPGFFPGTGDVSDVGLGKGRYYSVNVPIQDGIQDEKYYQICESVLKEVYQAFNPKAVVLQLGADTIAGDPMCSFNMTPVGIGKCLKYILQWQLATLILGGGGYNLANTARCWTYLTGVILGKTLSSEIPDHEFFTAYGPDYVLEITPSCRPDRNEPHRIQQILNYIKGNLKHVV
# Histone deacetylase 3 = Histone deacetylase 3 (Homo sapiens, UniProt O15379); test: Inhibition of recombinant full length human C-terminal His-tagged HDAC3 expressed in sf9 cells co-expressing human N-terminal GST-tagged NCOR2 (395 to 489 residues) using fluorophore-conjugated substrate by fluorescence assay
# Histone deacetylase 4 = Histone deacetylase 4 (Homo sapiens, UniProt P56524); test: Inhibition of HDAC4 (unknown origin)
# Histone deacetylase 2 = Histone deacetylase 2 (Homo sapiens, UniProt Q92769); test: Inhibition of recombinant full length human HDAC2 expressed in sf9 cells using fluorophore-conjugated substrate by fluorescence assay
# Histone deacetylase 7 = target: T2, Histone deacetylase 7 (Homo sapiens, UniProt Q8WUI4); test: (§2) Inhibition of HDAC7 (unknown origin)
# T2 sequence (Q8WUI4 whole entry): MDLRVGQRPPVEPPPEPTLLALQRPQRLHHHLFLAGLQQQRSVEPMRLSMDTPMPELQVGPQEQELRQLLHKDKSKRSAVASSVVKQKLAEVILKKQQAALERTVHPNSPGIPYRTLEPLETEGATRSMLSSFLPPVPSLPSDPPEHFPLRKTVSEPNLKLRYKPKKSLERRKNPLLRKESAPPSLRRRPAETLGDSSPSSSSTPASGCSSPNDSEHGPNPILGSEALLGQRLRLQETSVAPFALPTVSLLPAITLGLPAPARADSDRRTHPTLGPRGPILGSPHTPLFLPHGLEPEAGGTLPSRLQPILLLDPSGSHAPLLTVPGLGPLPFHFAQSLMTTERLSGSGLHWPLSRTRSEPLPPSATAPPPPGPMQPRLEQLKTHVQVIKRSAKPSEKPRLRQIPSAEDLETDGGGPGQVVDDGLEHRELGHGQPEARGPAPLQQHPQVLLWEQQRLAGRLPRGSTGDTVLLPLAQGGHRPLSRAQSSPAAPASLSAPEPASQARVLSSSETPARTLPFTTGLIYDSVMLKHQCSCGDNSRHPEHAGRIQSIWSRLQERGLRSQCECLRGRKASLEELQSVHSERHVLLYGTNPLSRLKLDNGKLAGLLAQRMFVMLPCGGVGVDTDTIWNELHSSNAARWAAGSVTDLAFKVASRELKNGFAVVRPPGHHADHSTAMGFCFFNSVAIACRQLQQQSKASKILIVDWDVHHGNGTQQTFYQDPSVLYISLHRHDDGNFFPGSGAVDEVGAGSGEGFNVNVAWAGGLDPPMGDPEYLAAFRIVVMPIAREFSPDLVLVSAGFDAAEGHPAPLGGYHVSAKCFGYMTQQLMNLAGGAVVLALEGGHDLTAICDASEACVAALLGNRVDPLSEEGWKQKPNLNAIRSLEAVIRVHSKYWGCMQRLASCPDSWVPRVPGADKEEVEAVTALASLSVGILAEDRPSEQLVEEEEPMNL
# Histone deacetylase 9 = Histone deacetylase 9 (Homo sapiens, UniProt Q9UKV0); test: Inhibition of HDAC9 (unknown origin)
# Histone deacetylase 5 = Histone deacetylase 5 (Homo sapiens, UniProt Q9UQL6); test: Inhibition of HDAC5 (unknown origin)
# [1] = target: T3, Protein deacetylase HDAC6 (Homo sapiens, UniProt Q9UBN7); test: (§3) Inhibition of recombinant full length human HDAC6 expressed in sf9 cells using fluorophore-conjugated substrate by fluorescence assay
# T3 sequence (Q9UBN7 whole entry): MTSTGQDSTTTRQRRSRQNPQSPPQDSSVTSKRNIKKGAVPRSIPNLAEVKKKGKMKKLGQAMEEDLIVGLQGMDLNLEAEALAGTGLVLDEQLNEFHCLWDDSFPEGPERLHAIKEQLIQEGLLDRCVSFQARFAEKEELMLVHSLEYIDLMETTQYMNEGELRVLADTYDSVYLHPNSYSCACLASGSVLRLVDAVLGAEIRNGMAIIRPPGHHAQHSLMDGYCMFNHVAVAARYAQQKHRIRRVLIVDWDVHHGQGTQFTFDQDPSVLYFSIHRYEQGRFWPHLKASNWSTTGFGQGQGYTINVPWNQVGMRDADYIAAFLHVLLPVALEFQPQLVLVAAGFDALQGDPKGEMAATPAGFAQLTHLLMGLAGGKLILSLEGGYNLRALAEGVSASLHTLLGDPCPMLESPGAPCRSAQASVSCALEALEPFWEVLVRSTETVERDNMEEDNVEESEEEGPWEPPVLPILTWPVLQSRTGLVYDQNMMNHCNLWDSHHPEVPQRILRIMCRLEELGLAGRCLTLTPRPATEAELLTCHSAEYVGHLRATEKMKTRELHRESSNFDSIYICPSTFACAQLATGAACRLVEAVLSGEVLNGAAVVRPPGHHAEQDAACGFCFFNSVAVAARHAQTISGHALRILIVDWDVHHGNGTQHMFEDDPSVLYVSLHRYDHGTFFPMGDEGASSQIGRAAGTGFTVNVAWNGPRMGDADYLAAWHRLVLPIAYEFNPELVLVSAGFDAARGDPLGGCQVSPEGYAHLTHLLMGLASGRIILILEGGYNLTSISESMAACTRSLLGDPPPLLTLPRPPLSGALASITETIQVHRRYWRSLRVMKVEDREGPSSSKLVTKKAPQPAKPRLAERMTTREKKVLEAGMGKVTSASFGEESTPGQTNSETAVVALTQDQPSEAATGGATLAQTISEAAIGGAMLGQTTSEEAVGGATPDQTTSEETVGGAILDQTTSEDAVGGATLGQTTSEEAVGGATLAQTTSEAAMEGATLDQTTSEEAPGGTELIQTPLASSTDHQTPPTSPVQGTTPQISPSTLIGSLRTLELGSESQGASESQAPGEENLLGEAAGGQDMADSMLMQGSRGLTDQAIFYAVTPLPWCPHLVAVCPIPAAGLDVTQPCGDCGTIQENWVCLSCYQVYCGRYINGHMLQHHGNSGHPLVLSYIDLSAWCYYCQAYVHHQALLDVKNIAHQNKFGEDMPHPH
# Histone deacetylase 1 = Histone deacetylase 1 (Homo sapiens, UniProt Q13547); test: Inhibition of recombinant full length human C-terminal FLAG/His-tagged HDAC1 expressed in baculovirus expression system using fluorophore-conjugated substrate by fluorescence assay
# [2] = target: T4, Histone deacetylase 8 (Homo sapiens) (UniProt Q9BY41); test: as §1
# T4 sequence (whole entry): T1 sequence (Q9BY41 whole entry)
# [3] = target: T5, Histone deacetylase 7 (Homo sapiens) (UniProt Q8WUI4); test: as §2
# T5 sequence (whole entry): T2 sequence (Q8WUI4 whole entry)
# [4] = target: T6, Protein deacetylase HDAC6 (Homo sapiens) (UniProt Q9UBN7); test: as §3
# T6 sequence (whole entry): T3 sequence (Q9UBN7 whole entry)
# Histone deacetylase 5, sequence (Q9UQL6 whole entry): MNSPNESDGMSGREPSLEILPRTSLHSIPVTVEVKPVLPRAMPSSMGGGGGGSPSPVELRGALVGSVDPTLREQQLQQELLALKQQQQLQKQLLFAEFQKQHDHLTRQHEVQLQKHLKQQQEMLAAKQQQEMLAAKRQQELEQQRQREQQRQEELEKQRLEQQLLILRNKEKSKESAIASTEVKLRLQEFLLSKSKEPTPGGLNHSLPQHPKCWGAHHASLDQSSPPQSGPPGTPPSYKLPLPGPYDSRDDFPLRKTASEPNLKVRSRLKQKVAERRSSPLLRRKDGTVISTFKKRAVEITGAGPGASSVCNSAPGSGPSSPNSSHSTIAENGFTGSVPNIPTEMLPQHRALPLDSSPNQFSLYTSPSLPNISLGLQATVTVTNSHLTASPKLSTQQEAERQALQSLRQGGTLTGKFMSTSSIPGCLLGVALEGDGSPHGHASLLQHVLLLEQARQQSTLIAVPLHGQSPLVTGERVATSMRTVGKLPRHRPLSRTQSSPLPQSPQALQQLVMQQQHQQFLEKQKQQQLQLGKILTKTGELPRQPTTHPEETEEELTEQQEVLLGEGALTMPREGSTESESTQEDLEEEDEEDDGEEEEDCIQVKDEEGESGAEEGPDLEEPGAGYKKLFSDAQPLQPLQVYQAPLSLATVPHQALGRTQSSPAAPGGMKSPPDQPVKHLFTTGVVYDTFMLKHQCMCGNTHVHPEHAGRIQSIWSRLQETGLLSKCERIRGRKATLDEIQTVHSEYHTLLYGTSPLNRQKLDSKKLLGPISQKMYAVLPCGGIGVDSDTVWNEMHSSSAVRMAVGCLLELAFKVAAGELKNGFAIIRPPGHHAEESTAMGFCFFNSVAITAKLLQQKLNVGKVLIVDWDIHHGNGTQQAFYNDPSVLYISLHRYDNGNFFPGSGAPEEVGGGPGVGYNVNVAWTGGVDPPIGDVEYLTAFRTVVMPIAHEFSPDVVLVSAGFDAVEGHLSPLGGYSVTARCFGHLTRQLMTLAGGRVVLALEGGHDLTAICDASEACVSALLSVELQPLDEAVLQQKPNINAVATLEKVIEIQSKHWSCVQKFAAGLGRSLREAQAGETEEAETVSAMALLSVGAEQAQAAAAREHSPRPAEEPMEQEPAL
# Histone deacetylase 4, sequence (P56524 whole entry): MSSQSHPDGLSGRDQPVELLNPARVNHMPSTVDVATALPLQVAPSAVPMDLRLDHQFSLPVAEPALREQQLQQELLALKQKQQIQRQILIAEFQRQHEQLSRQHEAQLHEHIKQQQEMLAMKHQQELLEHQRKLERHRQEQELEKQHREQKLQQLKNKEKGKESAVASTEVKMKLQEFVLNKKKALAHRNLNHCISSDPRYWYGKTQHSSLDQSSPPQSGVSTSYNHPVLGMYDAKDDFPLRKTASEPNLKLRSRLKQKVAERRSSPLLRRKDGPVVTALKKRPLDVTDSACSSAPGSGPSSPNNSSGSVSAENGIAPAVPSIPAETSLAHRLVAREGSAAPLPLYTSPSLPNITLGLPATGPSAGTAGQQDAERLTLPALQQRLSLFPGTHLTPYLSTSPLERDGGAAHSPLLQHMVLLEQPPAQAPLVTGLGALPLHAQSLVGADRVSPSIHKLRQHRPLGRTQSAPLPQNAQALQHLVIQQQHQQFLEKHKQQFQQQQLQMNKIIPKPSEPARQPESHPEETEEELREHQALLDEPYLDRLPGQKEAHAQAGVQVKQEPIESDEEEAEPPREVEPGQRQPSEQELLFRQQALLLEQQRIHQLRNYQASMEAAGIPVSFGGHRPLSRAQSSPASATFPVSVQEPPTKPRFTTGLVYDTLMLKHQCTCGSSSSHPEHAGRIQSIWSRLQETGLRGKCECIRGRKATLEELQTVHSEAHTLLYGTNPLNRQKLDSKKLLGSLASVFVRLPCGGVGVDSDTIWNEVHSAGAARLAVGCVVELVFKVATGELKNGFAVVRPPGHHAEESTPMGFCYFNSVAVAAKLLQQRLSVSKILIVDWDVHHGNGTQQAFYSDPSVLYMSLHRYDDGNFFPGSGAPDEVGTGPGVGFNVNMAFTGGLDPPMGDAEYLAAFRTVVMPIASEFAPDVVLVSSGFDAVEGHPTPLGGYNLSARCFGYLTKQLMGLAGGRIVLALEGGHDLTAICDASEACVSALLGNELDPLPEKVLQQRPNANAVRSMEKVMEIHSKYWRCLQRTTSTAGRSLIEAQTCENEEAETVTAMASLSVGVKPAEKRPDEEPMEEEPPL
# Histone deacetylase 3, sequence (O15379 whole entry, the tested form may be a part): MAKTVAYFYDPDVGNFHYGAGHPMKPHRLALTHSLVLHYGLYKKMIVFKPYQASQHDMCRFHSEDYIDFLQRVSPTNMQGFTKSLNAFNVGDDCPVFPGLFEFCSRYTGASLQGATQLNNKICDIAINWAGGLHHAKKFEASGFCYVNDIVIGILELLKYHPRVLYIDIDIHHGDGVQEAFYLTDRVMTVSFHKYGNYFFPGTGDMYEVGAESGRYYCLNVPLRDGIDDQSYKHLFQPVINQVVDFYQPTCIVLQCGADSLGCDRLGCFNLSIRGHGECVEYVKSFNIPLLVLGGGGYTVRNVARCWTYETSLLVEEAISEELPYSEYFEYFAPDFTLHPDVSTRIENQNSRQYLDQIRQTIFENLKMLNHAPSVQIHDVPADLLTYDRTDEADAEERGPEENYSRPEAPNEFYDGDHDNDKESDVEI
# Histone deacetylase 1, sequence (Q13547 whole entry): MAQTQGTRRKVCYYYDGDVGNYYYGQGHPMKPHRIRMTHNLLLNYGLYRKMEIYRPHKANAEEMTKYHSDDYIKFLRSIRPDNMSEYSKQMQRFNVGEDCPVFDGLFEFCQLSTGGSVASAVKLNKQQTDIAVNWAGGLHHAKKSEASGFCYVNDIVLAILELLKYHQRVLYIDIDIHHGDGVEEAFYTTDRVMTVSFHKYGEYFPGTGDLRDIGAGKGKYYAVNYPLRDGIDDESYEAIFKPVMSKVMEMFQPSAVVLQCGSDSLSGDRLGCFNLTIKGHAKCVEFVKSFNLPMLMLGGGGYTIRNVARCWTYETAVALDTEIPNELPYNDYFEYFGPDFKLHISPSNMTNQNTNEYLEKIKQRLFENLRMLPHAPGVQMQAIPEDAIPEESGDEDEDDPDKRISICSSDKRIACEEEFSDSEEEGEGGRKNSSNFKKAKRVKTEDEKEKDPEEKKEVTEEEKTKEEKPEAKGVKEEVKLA
# Histone deacetylase 2, sequence (Q92769 whole entry): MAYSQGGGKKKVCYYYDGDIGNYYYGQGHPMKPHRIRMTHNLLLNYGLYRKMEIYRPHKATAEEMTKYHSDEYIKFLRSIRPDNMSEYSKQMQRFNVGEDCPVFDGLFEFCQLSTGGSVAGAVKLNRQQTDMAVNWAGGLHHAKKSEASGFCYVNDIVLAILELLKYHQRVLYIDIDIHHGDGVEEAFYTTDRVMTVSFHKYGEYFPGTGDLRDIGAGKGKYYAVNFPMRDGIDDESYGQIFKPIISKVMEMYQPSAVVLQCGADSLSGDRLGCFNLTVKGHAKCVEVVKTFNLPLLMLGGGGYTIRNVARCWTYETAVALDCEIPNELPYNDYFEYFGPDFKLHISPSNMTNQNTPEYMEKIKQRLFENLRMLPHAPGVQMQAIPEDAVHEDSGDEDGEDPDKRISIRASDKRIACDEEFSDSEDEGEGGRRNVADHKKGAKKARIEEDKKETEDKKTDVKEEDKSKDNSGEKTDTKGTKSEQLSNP
# Histone deacetylase 9, sequence (Q9UKV0 whole entry): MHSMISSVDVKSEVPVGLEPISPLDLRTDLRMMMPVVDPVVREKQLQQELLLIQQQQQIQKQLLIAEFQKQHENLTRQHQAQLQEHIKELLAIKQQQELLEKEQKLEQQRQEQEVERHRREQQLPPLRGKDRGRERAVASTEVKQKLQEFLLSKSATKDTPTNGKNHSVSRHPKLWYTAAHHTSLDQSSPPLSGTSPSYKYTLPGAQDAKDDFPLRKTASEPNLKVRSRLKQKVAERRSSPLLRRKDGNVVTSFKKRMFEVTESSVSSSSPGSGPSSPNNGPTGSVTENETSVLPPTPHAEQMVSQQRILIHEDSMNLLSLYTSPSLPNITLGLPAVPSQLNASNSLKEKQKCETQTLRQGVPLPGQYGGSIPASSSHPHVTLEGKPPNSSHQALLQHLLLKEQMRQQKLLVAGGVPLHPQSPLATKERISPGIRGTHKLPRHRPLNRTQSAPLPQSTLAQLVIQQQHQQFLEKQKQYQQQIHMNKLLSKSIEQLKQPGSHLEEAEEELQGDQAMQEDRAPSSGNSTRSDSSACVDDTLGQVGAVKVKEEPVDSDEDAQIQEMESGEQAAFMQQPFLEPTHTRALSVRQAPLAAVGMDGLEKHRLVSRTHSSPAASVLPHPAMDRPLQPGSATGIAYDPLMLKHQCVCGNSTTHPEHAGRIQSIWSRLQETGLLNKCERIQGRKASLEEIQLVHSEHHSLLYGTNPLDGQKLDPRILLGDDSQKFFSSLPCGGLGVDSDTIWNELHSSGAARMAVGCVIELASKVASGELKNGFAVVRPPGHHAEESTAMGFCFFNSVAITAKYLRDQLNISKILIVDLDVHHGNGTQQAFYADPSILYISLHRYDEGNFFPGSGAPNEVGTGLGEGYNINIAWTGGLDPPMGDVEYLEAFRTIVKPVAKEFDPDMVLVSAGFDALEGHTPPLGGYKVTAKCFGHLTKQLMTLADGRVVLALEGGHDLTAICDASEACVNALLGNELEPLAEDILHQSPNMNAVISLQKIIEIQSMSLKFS
smiles,measurement,setting,value
CC(C)(C)c1ccc(-c2nnn([C@@H](Cc3ccccc3)C(=O)NO)c2C#CC2CC2)cc1,IC50,Histone deacetylase 8,133 nM
O=C(NO)[C@H](Cc1ccccc1)n1nnc(-c2ccccc2)c1C#CC1CC1,IC50,Histone deacetylase 3,> 20000 nM
same,IC50,Histone deacetylase 4,> 20000 nM
same,IC50,Histone deacetylase 8,0.8 nM
same,IC50,Histone deacetylase 2,> 20000 nM
same,IC50,Histone deacetylase 7,> 20000 nM
same,IC50,Histone deacetylase 9,> 20000 nM
same,IC50,Histone deacetylase 5,> 20000 nM
same,IC50,[1],1200 nM
same,IC50,Histone deacetylase 1,4300 nM
O=C(NO)[C@H](Cc1ccccc1)n1nnc(-c2cccc(Cl)c2)c1C#CC1CC1,IC50,Histone deacetylase 8,8 nM
O=C(NO)[C@@H](Cc1ccccc1)n1nnc(-c2ccccc2)c1C#Cc1ccccc1,inhibition,Histone deacetylase 3,inactive
same,inhibition,Histone deacetylase 4,inactive
same,inhibition,[2],inactive
same,inhibition,Histone deacetylase 2,inactive
same,inhibition,[3],inactive
same,inhibition,Histone deacetylase 9,inactive
same,inhibition,Histone deacetylase 5,inactive
same,inhibition,[4],inactive
same,inhibition,Histone deacetylase 1,inactive
O=C(NO)[C@H](Cc1ccccc1)n1cc(-c2ccccc2)nn1,inhibition,Histone deacetylase 3,inactive
same,inhibition,Histone deacetylase 4,inactive
same,inhibition,[2],inactive
same,inhibition,Histone deacetylase 2,inactive
same,inhibition,[3],inactive
same,inhibition,Histone deacetylase 9,inactive
same,inhibition,Histone deacetylase 5,inactive
same,inhibition,[4],inactive
same,inhibition,Histone deacetylase 1,inactive
CCC/C=C/c1c(-c2ccccc2)nnn1[C@@H](Cc1ccccc1)C(=O)NO,IC50,Histone deacetylase 8,464 nM
CCc1ccc(C#Cc2c(-c3ccccc3)nnn2[C@@H](Cc2ccccc2)C(=O)NO)cc1,IC50,Histone deacetylase 8,1500 nM
O=C(O)[C@H](Cc1ccccc1)n1nnc(-c2ccccc2)c1C#Cc1ccccc1,inhibition,Histone deacetylase 3,inactive
same,inhibition,Histone deacetylase 4,inactive
same,inhibition,[2],inactive
same,inhibition,Histone deacetylase 2,inactive
same,inhibition,[3],inactive
same,inhibition,Histone deacetylase 9,inactive
same,inhibition,Histone deacetylase 5,inactive
same,inhibition,[4],inactive
same,inhibition,Histone deacetylase 1,inactive
O=C(NO)[C@H](Cc1ccccc1)n1nnc(-c2ccccc2)c1C#Cc1ccccc1,IC50,Histone deacetylase 3,> 20000 nM
same,IC50,Histone deacetylase 4,> 20000 nM
same,IC50,Histone deacetylase 8,10 nM
same,IC50,Histone deacetylase 2,> 20000 nM
same,IC50,Histone deacetylase 7,> 20000 nM
same,IC50,Histone deacetylase 9,> 20000 nM
same,IC50,Histone deacetylase 5,> 20000 nM
same,IC50,[1],3600 nM
same,IC50,Histone deacetylase 1,> 20000 nM
O=C(NO)[C@H](Cc1ccccc1)n1nnc(-c2ccccc2)c1/C=C/C1CC1,inhibition,[2],inactive
O=C(NO)[C@H](Cc1ccccc1)n1nnc(-c2ccsc2)c1C#CC1CC1,IC50,Histone deacetylase 8,4 nM
O=C(NO)[C@H](Cc1ccccc1)n1nnc(-c2ccccc2)c1C#Cc1ccc(-c2ccccc2)cc1,IC50,Histone deacetylase 8,9100 nM
COC(=O)[C@H](Cc1ccccc1)n1nnc(-c2ccccc2)c1C#Cc1ccccc1,inhibition,Histone deacetylase 3,inactive
same,inhibition,Histone deacetylase 4,inactive
same,inhibition,[2],inactive
same,inhibition,Histone deacetylase 2,inactive
same,inhibition,[3],inactive
same,inhibition,Histone deacetylase 9,inactive
same,inhibition,Histone deacetylase 5,inactive
same,inhibition,[4],inactive
same,inhibition,Histone deacetylase 1,inactive
CNC(=O)[C@H](Cc1ccccc1)n1nnc(-c2ccccc2)c1C#Cc1ccccc1,inhibition,Histone deacetylase 3,inactive
same,inhibition,Histone deacetylase 4,inactive
same,inhibition,[2],inactive
same,inhibition,Histone deacetylase 2,inactive
same,inhibition,[3],inactive
same,inhibition,Histone deacetylase 9,inactive
same,inhibition,Histone deacetylase 5,inactive
same,inhibition,[4],inactive
same,inhibition,Histone deacetylase 1,inactive
O=C(NO)[C@H](Cc1ccccc1)n1nnc(-c2ccccc2)c1CCC1CC1,inhibition,[2],inactive
CC(C)[C@@H](C(=O)NO)n1nnc(-c2ccccc2)c1C#Cc1ccccc1,IC50,Histone deacetylase 8,2300 nM
O=C(NO)[C@H](Cc1c[nH]c2ccccc12)n1nnc(-c2ccccc2)c1C#CC1CC1,IC50,Histone deacetylase 8,7 nM
CCCCCc1c(-c2ccccc2)nnn1[C@@H](Cc1ccccc1)C(=O)NO,IC50,Histone deacetylase 8,160 nM
COc1cc(OC)cc(-c2nnn([C@@H](Cc3ccccc3)C(=O)NO)c2C#CC2CC2)c1,IC50,Histone deacetylase 8,3 nM
